# Laboratory results taken from the supplement of paper PMC10307832.
# Key:
# Test in all cases: relative viability (nuclei count vs DMSO), 5 days (fraction); higher = more cells survive
# Dovitinib + Pemetrexed = compound: CN1CCN(c2ccc3nc(-c4c(N)c5c(F)cccc5[nH]c4=O)[nH]c3c2)CC1 [Dovitinib] + Nc1nc2[nH]cc(CCc3ccc(C(=O)N[C@@H](CCC(=O)O)C(=O)O)cc3)c2c(=O)[nH]1 [Pemetrexed] (partner 0.2 µM)
# Outline: (§1)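 Each reported value is a median over duplicate plates. It expresses relative viability: treated-well nuclei count divided by vehicle-well nuclei count. Lung cancer cell lines in 1536-well plates were dosed by pin tool a day after seeding, alone with one drug or with a fixed anchor-drug dose plus five library-drug doses (not always all listed) in √10 steps, and nuclei were counted after 5 days.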
# Dovitinib + Vorinostat = compound: CN1CCN(c2ccc3nc(-c4c(N)c5c(F)cccc5[nH]c4=O)[nH]c3c2)CC1 [Dovitinib] + O=C(CCCCCCC(=O)Nc1ccccc1)NO [Vorinostat] (partner 1 µM)
# Outline: as §1
# Dovitinib + Navitoclax = compound: CN1CCN(c2ccc3nc(-c4c(N)c5c(F)cccc5[nH]c4=O)[nH]c3c2)CC1 [Dovitinib] + CC1(C)CCC(c2ccc(Cl)cc2)=C(CN2CCN(c3ccc(C(=O)NS(=O)(=O)c4ccc(N[C@H](CCN5CCOCC5)CSc5ccccc5)c(S(=O)(=O)C(F)(F)F)c4)cc3)CC2)C1 [Navitoclax] (partner 0.5 µM)
# Outline: as §1
# Dovitinib + Linsitinib = compound: CN1CCN(c2ccc3nc(-c4c(N)c5c(F)cccc5[nH]c4=O)[nH]c3c2)CC1 [Dovitinib] + C[C@]1(O)C[C@@H](c2nc(-c3ccc4ccc(-c5ccccc5)nc4c3)c3c(N)nccn32)C1 [Linsitinib] (partner 1 µM)
# Outline: as §1
cell line,measurement,setting,value
PC-3 [JPC-3],relative viability,Dovitinib + Pemetrexed; first compound 0.02 µM,1.12
same,relative viability,Dovitinib + Pemetrexed; first compound 0.06325 µM,1.12
same,relative viability,Dovitinib + Pemetrexed; first compound 0.2 µM,1.16
same,relative viability,Dovitinib + Pemetrexed; first compound 0.6325 µM,1.3
same,relative viability,Dovitinib + Pemetrexed; first compound 2 µM,1.21
same,relative viability,Dovitinib + Vorinostat; first compound 0.02 µM,0.888
same,relative viability,Dovitinib + Vorinostat; first compound 0.06325 µM,0.77
same,relative viability,Dovitinib + Vorinostat; first compound 0.2 µM,0.948
same,relative viability,Dovitinib + Vorinostat; first compound 0.6325 µM,0.945
same,relative viability,Dovitinib + Vorinostat; first compound 2 µM,0.914
same,relative viability,Dovitinib + Navitoclax; first compound 0.02 µM,0.834
same,relative viability,Dovitinib + Navitoclax; first compound 0.06325 µM,0.841
same,relative viability,Dovitinib + Navitoclax; first compound 0.2 µM,0.861
same,relative viability,Dovitinib + Navitoclax; first compound 0.6325 µM,0.802
same,relative viability,Dovitinib + Navitoclax; first compound 2 µM,0.777
same,relative viability,Dovitinib + Linsitinib; first compound 0.02 µM,0.923
same,relative viability,Dovitinib + Linsitinib; first compound 0.06325 µM,0.907
same,relative viability,Dovitinib + Linsitinib; first compound 0.2 µM,0.983
same,relative viability,Dovitinib + Linsitinib; first compound 0.6325 µM,0.99
same,relative viability,Dovitinib + Linsitinib; first compound 2 µM,0.967
PC-14,relative viability,Dovitinib + Pemetrexed; first compound 0.02 µM,0.128
same,relative viability,Dovitinib + Pemetrexed; first compound 0.06325 µM,0.134
same,relative viability,Dovitinib + Pemetrexed; first compound 0.2 µM,0.121
same,relative viability,Dovitinib + Pemetrexed; first compound 0.6325 µM,0.141
same,relative viability,Dovitinib + Pemetrexed; first compound 2 µM,0.132
same,relative viability,Dovitinib + Vorinostat; first compound 0.02 µM,0.771
same,relative viability,Dovitinib + Vorinostat; first compound 0.06325 µM,0.938
same,relative viability,Dovitinib + Vorinostat; first compound 0.2 µM,0.778
same,relative viability,Dovitinib + Vorinostat; first compound 0.6325 µM,0.694
same,relative viability,Dovitinib + Vorinostat; first compound 2 µM,0.757
same,relative viability,Dovitinib + Navitoclax; first compound 0.02 µM,0.998
same,relative viability,Dovitinib + Navitoclax; first compound 0.06325 µM,1.08
same,relative viability,Dovitinib + Navitoclax; first compound 0.2 µM,1
same,relative viability,Dovitinib + Navitoclax; first compound 0.6325 µM,0.988
same,relative viability,Dovitinib + Navitoclax; first compound 2 µM,0.939
same,relative viability,Dovitinib + Linsitinib; first compound 0.02 µM,1.03
same,relative viability,Dovitinib + Linsitinib; first compound 0.06325 µM,0.954
same,relative viability,Dovitinib + Linsitinib; first compound 0.2 µM,0.969
same,relative viability,Dovitinib + Linsitinib; first compound 0.6325 µM,0.996
same,relative viability,Dovitinib + Linsitinib; first compound 2 µM,0.928
RERF-LC-KJ,relative viability,Dovitinib + Pemetrexed; first compound 0.02 µM,0.47
same,relative viability,Dovitinib + Pemetrexed; first compound 0.06325 µM,0.49
same,relative viability,Dovitinib + Pemetrexed; first compound 0.2 µM,0.483
same,relative viability,Dovitinib + Pemetrexed; first compound 0.6325 µM,0.475
same,relative viability,Dovitinib + Pemetrexed; first compound 2 µM,0.47
same,relative viability,Dovitinib + Vorinostat; first compound 0.02 µM,0.654
same,relative viability,Dovitinib + Vorinostat; first compound 0.06325 µM,0.681
same,relative viability,Dovitinib + Vorinostat; first compound 0.2 µM,0.761
same,relative viability,Dovitinib + Vorinostat; first compound 0.6325 µM,0.667
same,relative viability,Dovitinib + Vorinostat; first compound 2 µM,0.685
same,relative viability,Dovitinib + Navitoclax; first compound 0.02 µM,0.794
same,relative viability,Dovitinib + Navitoclax; first compound 0.06325 µM,1.06
same,relative viability,Dovitinib + Navitoclax; first compound 0.2 µM,1.1
same,relative viability,Dovitinib + Navitoclax; first compound 0.6325 µM,1.15
same,relative viability,Dovitinib + Navitoclax; first compound 2 µM,1.09
same,relative viability,Dovitinib + Linsitinib; first compound 0.02 µM,0.89
same,relative viability,Dovitinib + Linsitinib; first compound 0.06325 µM,0.934
same,relative viability,Dovitinib + Linsitinib; first compound 0.2 µM,0.938
same,relative viability,Dovitinib + Linsitinib; first compound 0.6325 µM,0.838
same,relative viability,Dovitinib + Linsitinib; first compound 2 µM,0.842
SK-LU-1,relative viability,Dovitinib + Pemetrexed; first compound 0.02 µM,0.985
same,relative viability,Dovitinib + Pemetrexed; first compound 0.06325 µM,0.92
same,relative viability,Dovitinib + Pemetrexed; first compound 0.2 µM,0.913
same,relative viability,Dovitinib + Pemetrexed; first compound 0.6325 µM,1
same,relative viability,Dovitinib + Pemetrexed; first compound 2 µM,1.02
same,relative viability,Dovitinib + Vorinostat; first compound 0.02 µM,0.753
same,relative viability,Dovitinib + Vorinostat; first compound 0.06325 µM,0.913
same,relative viability,Dovitinib + Vorinostat; first compound 0.2 µM,0.759
same,relative viability,Dovitinib + Vorinostat; first compound 0.6325 µM,0.715
same,relative viability,Dovitinib + Vorinostat; first compound 2 µM,0.805
same,relative viability,Dovitinib + Navitoclax; first compound 0.02 µM,0.787
same,relative viability,Dovitinib + Navitoclax; first compound 0.06325 µM,1.09
same,relative viability,Dovitinib + Navitoclax; first compound 0.2 µM,0.835
same,relative viability,Dovitinib + Navitoclax; first compound 0.6325 µM,0.748
same,relative viability,Dovitinib + Navitoclax; first compound 2 µM,0.925
same,relative viability,Dovitinib + Linsitinib; first compound 0.02 µM,1.1
same,relative viability,Dovitinib + Linsitinib; first compound 0.06325 µM,0.999
same,relative viability,Dovitinib + Linsitinib; first compound 0.2 µM,0.966
same,relative viability,Dovitinib + Linsitinib; first compound 0.6325 µM,1.07
same,relative viability,Dovitinib + Linsitinib; first compound 2 µM,1.06
SK-MES-1,relative viability,Dovitinib + Pemetrexed; first compound 0.02 µM,0.941
same,relative viability,Dovitinib + Pemetrexed; first compound 0.06325 µM,0.958
same,relative viability,Dovitinib + Pemetrexed; first compound 0.2 µM,0.972
same,relative viability,Dovitinib + Pemetrexed; first compound 0.6325 µM,0.966
same,relative viability,Dovitinib + Pemetrexed; first compound 2 µM,1.03
same,relative viability,Dovitinib + Vorinostat; first compound 0.02 µM,1.08
same,relative viability,Dovitinib + Vorinostat; first compound 0.06325 µM,1.13
same,relative viability,Dovitinib + Vorinostat; first compound 0.2 µM,1.17
same,relative viability,Dovitinib + Vorinostat; first compound 0.6325 µM,1.09
same,relative viability,Dovitinib + Vorinostat; first compound 2 µM,1.12
same,relative viability,Dovitinib + Navitoclax; first compound 0.02 µM,1.24
same,relative viability,Dovitinib + Navitoclax; first compound 0.06325 µM,1.21
same,relative viability,Dovitinib + Navitoclax; first compound 0.2 µM,1.16
same,relative viability,Dovitinib + Navitoclax; first compound 0.6325 µM,1.31
same,relative viability,Dovitinib + Navitoclax; first compound 2 µM,1.27
same,relative viability,Dovitinib + Linsitinib; first compound 0.02 µM,1.09
same,relative viability,Dovitinib + Linsitinib; first compound 0.06325 µM,1.02
same,relative viability,Dovitinib + Linsitinib; first compound 0.2 µM,1.09
same,relative viability,Dovitinib + Linsitinib; first compound 0.6325 µM,1.15
same,relative viability,Dovitinib + Linsitinib; first compound 2 µM,1.07
SW 1573,relative viability,Dovitinib + Pemetrexed; first compound 0.02 µM,0.853
same,relative viability,Dovitinib + Pemetrexed; first compound 0.06325 µM,0.859
same,relative viability,Dovitinib + Pemetrexed; first compound 0.2 µM,0.858
same,relative viability,Dovitinib + Pemetrexed; first compound 0.6325 µM,0.868
same,relative viability,Dovitinib + Pemetrexed; first compound 2 µM,0.861
same,relative viability,Dovitinib + Vorinostat; first compound 0.02 µM,0.65
same,relative viability,Dovitinib + Vorinostat; first compound 0.06325 µM,0.908
same,relative viability,Dovitinib + Vorinostat; first compound 0.2 µM,0.6
same,relative viability,Dovitinib + Vorinostat; first compound 0.6325 µM,0.702
same,relative viability,Dovitinib + Vorinostat; first compound 2 µM,1.02
same,relative viability,Dovitinib + Navitoclax; first compound 0.02 µM,1.03
same,relative viability,Dovitinib + Navitoclax; first compound 0.06325 µM,0.934
same,relative viability,Dovitinib + Navitoclax; first compound 0.2 µM,1.02
same,relative viability,Dovitinib + Navitoclax; first compound 0.6325 µM,0.97
same,relative viability,Dovitinib + Navitoclax; first compound 2 µM,1
same,relative viability,Dovitinib + Linsitinib; first compound 0.02 µM,0.798
same,relative viability,Dovitinib + Linsitinib; first compound 0.06325 µM,0.795
same,relative viability,Dovitinib + Linsitinib; first compound 0.2 µM,0.749
same,relative viability,Dovitinib + Linsitinib; first compound 0.6325 µM,0.766
same,relative viability,Dovitinib + Linsitinib; first compound 2 µM,0.864
UMC-11,relative viability,Dovitinib + Pemetrexed; first compound 0.02 µM,0.808
same,relative viability,Dovitinib + Pemetrexed; first compound 0.06325 µM,0.787
same,relative viability,Dovitinib + Pemetrexed; first compound 0.2 µM,0.838
same,relative viability,Dovitinib + Pemetrexed; first compound 0.6325 µM,0.876
same,relative viability,Dovitinib + Pemetrexed; first compound 2 µM,0.822
same,relative viability,Dovitinib + Vorinostat; first compound 0.02 µM,0.449
same,relative viability,Dovitinib + Vorinostat; first compound 0.06325 µM,0.422
same,relative viability,Dovitinib + Vorinostat; first compound 0.2 µM,0.478
same,relative viability,Dovitinib + Vorinostat; first compound 0.6325 µM,0.383
same,relative viability,Dovitinib + Vorinostat; first compound 2 µM,0.431
same,relative viability,Dovitinib + Navitoclax; first compound 0.02 µM,0.364
same,relative viability,Dovitinib + Navitoclax; first compound 0.06325 µM,0.308
same,relative viability,Dovitinib + Navitoclax; first compound 0.2 µM,0.373
same,relative viability,Dovitinib + Navitoclax; first compound 0.6325 µM,0.297
same,relative viability,Dovitinib + Navitoclax; first compound 2 µM,0.318
same,relative viability,Dovitinib + Linsitinib; first compound 0.02 µM,0.983
same,relative viability,Dovitinib + Linsitinib; first compound 0.06325 µM,1.1
same,relative viability,Dovitinib + Linsitinib; first compound 0.2 µM,0.986
same,relative viability,Dovitinib + Linsitinib; first compound 0.6325 µM,1.07
same,relative viability,Dovitinib + Linsitinib; first compound 2 µM,1.07
